According to ChEMBL document CHEMBL1201862, “PubChem BioAssay data set” (2004):
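Cells were grown in 96-well plates and exposed to each compound for 48 hours at five concentrations; endpoints were interpolated linearly between bracketing concentrations, or set to the highest concentration if not reached. At the GI50, growth is halved.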 Calls of active or inactive are those of the source. No stated cut-off is given here; in the data, active = GI50 up to about 1.1 µM and inactive = higher.

Tests used:
Assay in all cases: NCI-60 cell line screen, 48 h
HCT-116 = system: HCT-116
NCI-H522 = system: NCI-H522
U-251 = system: U-251
COLO 205 = system: COLO 205
OVCAR-5 = system: OVCAR-5
K562 = system: K562
NCI-H23 = system: NCI-H23
SW-620 = system: SW-620
RXF 393 = system: RXF 393
OVCAR-3 = system: OVCAR-3
LOX IMVI = system: LOX IMVI
CCRF-CEM = system: CCRF-CEM
HOP-62 = system: HOP-62
TK-10 = system: TK-10
SF-295 = system: SF-295
UO-31 = system: UO-31
MOLT-4 = system: MOLT-4
EKVX = system: EKVX
UACC-257 = system: UACC-257
SN12C = system: SN12C

Structure (SMILES) | GI50 (HCT-116) | GI50 (NCI-H522) | GI50 (U-251) | GI50 (COLO 205) | GI50 (OVCAR-5) | GI50 (K562) | GI50 (NCI-H23) | GI50 (SW-620) | GI50 (RXF 393) | GI50 (OVCAR-3) | GI50 (LOX IMVI) | GI50 (CCRF-CEM) | GI50 (HOP-62) | GI50 (TK-10) | GI50 (SF-295) | GI50 (UO-31) | GI50 (MOLT-4) | GI50 (EKVX) | GI50 (UACC-257) | GI50 (SN12C)
CC12Nc3ccccc3N1C(=O)c1ccccc12 (stereo not given) | > 100 µM (inactive) | > 100 µM (inactive) | > 100 µM (inactive) | > 100 µM (inactive) | > 100 µM (inactive) | > 100 µM (inactive) | > 100 µM (inactive) | > 100 µM (inactive) | > 100 µM (inactive) | > 100 µM (inactive) | > 100 µM (inactive) | > 100 µM (inactive) | > 100 µM (inactive) | > 100 µM (inactive) | > 100 µM (inactive) | > 100 µM (inactive) | > 100 µM (inactive) | > 100 µM (inactive) | > 100 µM (inactive) | > 100 µM (inactive)
COc1ccc(C(c2cc3c(cc2O)OCO3)N2CCOCC2)cc1OC (stereo not given) | 10.9 µM (inactive) | 3.28 µM (inactive) | 9.64 µM (inactive) | 15.3 µM (inactive) | 9.95 µM (inactive) | 7.6 µM (inactive) | 4.15 µM (inactive) | 2.72 µM (inactive) | 18.8 µM (inactive) | 7.8 µM (inactive) | 4.01 µM (inactive) | 0.327 µM (active) | 15.7 µM (inactive) | 13.4 µM (inactive) | 14.2 µM (inactive) | 11.1 µM (inactive) | 3.48 µM (inactive) | 19.1 µM (inactive) | 15.7 µM (inactive) | 10.2 µM (inactive)
CC(=O)O[C@H]1[C@@H](OC(C)=O)C(C)(C)/C=C/[C@H](C)C(=O)[C@@]2(OC(C)=O)C[C@@](C)(OC(C)=O)[C@H](OC(C)=O)[C@@H]2[C@H]2OC(=O)CC[C@@]2(OC(=O)c2ccccc2)[C@@H]1OCC(C)C | 19.5 µM (inactive) | 32.4 µM (inactive) | 80.4 µM (inactive) | 5.15 µM (inactive) | > 100 µM (inactive) | 4.51 µM (inactive) | 38.7 µM (inactive) | 10.7 µM (inactive) | 46.7 µM (inactive) | > 100 µM (inactive) | > 100 µM (inactive) | 11.2 µM (inactive) | 6.04 µM (inactive) | 3.61 µM (inactive) | 3.63 µM (inactive) | 22.2 µM (inactive) | 4.76 µM (inactive) | 87.9 µM (inactive) | 85.1 µM (inactive) | > 100 µM (inactive)
O=C1C(=CNC(=S)c2ccccc2)C(=O)c2ccccc21 | 46.7 µM (inactive) | 21 µM (inactive) | 64.9 µM (inactive) | 69.7 µM (inactive) | > 100 µM (inactive) | 30.1 µM (inactive) | 51.5 µM (inactive) | 55.8 µM (inactive) | 46.7 µM (inactive) | 76 µM (inactive) | 43.1 µM (inactive) | 25 µM (inactive) | 91.8 µM (inactive) | 41.6 µM (inactive) | 91 µM (inactive) | 25.8 µM (inactive) | 27.5 µM (inactive) | 60.8 µM (inactive) | 55.1 µM (inactive) | 46.7 µM (inactive)
CC(=O)Nc1ccc(C2=N/C(=C\c3ccc(Cl)c(Cl)c3)C(=O)O2)cc1 | > 100 µM (inactive) | > 100 µM (inactive) | > 100 µM (inactive) | > 100 µM (inactive) | > 100 µM (inactive) | > 100 µM (inactive) | > 100 µM (inactive) | > 100 µM (inactive) | > 100 µM (inactive) | > 100 µM (inactive) | 30 µM (inactive) | > 100 µM (inactive) | > 100 µM (inactive) | > 100 µM (inactive) | > 100 µM (inactive) | > 100 µM (inactive) | > 100 µM (inactive) | > 100 µM (inactive) | > 100 µM (inactive) | > 100 µM (inactive)
